In patent US7226766B2, “S-methylcysteine, S-ethylcysteine, and related S-alkylthiols as antagonists to the effects of S-nitrosothiols and nitric oxide” (University of Iowa Research Foundation, priority 2001, dated 2007):

How the values were obtained:
[1] = test system: Sprague-Dawley rats treated with lipopolysaccharide (septic shock model); assay: experimental model of septic shock: lipopolysaccharide-treated conscious rats, hemodynamic measurements and deaths; assay type: in vivo, rat; conditions: for number of treated rats that died: lipopolysaccharide-treated rats, 22 rats received L-NAME, 12 rats S-methyl cysteine; for mean arterial pressure after treatment: rats 72 hours after lipopolysaccharide 0.5 mg/kg i.p., L-NAME 25 μmole/kg or S-methyl-L-cysteine 200 nmol/kg infusion for 10 minutes + 500 nmol/kg bolus; for total peripheral resistance after treatment (in words): L-NAME 25 μmole/kg or S-methyl-L-cysteine 200 nmol/kg infusion + 500 nmol/kg bolus
Method: Male 16 week old Sprague-Dawley rats were anesthetized for surgical placement of intraaortic pressure tranducers and Dopplar flow probes around the abdominal aorta and the left main coronary artery. After 48 hours of recovery baseline measurements of arterial blood pressure, cardiac output (as Dopplar flow), and coronary blood flow (Dopplar) were obtained in conscious unrestrained animals. The rats were then treated with intraperotoneal injections of purified lipopolysaccharide 0.5 mg/kg. After 72 hours when the induction of iNOS had produced a fall in blood pressure, measurements were repeated. Each rat then received either 25 μmole/kg of the nitric oxide synthase inhibitor L-NAME or an infusion of 200 nmol/kg of S-methyl-L-cysteine for 10 minutes followed by a 500 nmol/kg bolus dose of S-methyl-L-cysteine. The measurements were then repeated a third time.

[2] = test system: hypotensive effects of infused S-nitrosocysteine; assay: inhibition of the hypotensive effects of infused S-nitrosocysteine; conditions: in vivo
[3] = rats 72 hours after lipopolysaccharide, L-NAME 25 μmole/kg
[4] = rats 72 hours after lipopolysaccharide

COC(=O)[C@@H](N)CCCNC(=N)N[N+](=O)[O-] [L-NAME, Nω-nitro-L-arginine methyl ester, reference compound]
number of treated rats that died [1]: 7
mean arterial pressure after treatment [1]: returned mean arterial pressure to baseline values
coronary resistance after treatment [1, 3]: about 160 % of baseline values
heart rate after treatment [1, 3]: about 60 % of the pre-treatment values
total peripheral resistance after treatment [1, 3]: about 160 % of baseline values
total peripheral resistance after treatment (in words) [1, 4]: increased total peripheral resistance far above normal
coronary blood flow after treatment ([1]; rats 72 hours after lipopolysaccharide, L-NAME 25 μmole/kg, Doppler): about 60 % of the pre-treatment values
cardiac output after treatment ([1]; rats 72 hours after lipopolysaccharide, L-NAME 25 μmole/kg, Doppler flow): about 60 % of the pre-treatment values

CSC[C@H](N)C(=O)O [S-methyl-L-cysteine]
effect on the hypotensive effects of infused S-nitrosocysteine [2]: inhibit the hypotensive effects of infused S-nitrosocysteine
number of treated rats that died [1]: none died
mean arterial pressure after treatment [1]: attenuated the hypotension induced by lipopolysaccharide
mean arterial pressure after treatment ([1]; listed as S-methyl cysteine): returned mean arterial pressure to baseline values
total peripheral resistance after treatment (in words) [1, 4]: returned to normal values
coronary blood flow after treatment (in words) ([1]; rats 72 hours after lipopolysaccharide, S-methyl-L-cysteine 200 nmol/kg infusion for 10 minutes + 500 nmol/kg bolus): to pre-treatment values
